Here are results for one compound from publication PMC11395469, “BpfD Is a c-di-GMP Effector Protein Playing a Key Role for Pellicle Biosynthesis in Shewanella oneidensis” (International Journal of Molecular Sciences, 2024).

This test has as its target T1, BpfD (Shewanella oneidensis, UniProt Q8E9G0).
T1 construct: gene SO_4323; BpfDS, cytoplasmic part (S225 to E639) with degenerated GGDEF and EAL domains, Strep-tagged
T1 sequence (Q8E9G0 225-639): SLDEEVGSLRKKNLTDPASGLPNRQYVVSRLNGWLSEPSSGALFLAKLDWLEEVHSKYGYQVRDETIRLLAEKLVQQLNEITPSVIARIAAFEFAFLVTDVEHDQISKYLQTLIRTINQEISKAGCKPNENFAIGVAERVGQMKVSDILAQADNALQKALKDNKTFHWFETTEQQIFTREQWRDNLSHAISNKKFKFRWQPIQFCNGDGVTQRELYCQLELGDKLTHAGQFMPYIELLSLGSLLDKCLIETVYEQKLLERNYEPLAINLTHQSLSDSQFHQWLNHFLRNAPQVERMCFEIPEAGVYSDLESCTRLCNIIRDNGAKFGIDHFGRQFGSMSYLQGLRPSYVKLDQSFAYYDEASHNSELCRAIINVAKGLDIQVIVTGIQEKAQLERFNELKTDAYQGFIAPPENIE
Kind of test: isothermal titration calorimetry with purified BpfDS; supported by thermal shift assays. In kind it is binding.

By Kd is commonly meant the free concentration of one partner at which half of the binding sites on the other are occupied at equilibrium, for simple one-to-one binding. As to `Nc1nc2c(ncn2[C@@H]2O[C@@H]3CO[P@](=O)(O)O[C@H]4[C@@H](O)[C@H](n5cnc6c(=O)[nH]c(N)nc65)O[C@@H]4CO[P@](=O)(O)O[C@H]3[C@H]2O)c(=O)[nH]1` [c-di-GMP], the Kd came to 4.38 ± 0.8 µM.
